Several values for one entry are separate records, joined by “and”; a condition that tells them apart may be missing. Equal entries are not always repeated. Marks after values point to notes of the source that are not given here.
Legend:
[1] = test system: rat aortic smooth muscle cell line A7r5; test: Inhibiting proliferation of smooth muscle cells - cell cycle analysis (propidium iodide flow cytometry); type: cell-based; conditions: 24 hours
Experimental: (§1) A rat aortic smooth muscle cell line A7r5 was used to carry out the present experiment. A Dulbecco's modified Eagle's medium (DMEM, purchased from Biowest) was used as a general culture medium. The medium was added with 4 mM of L-glutamine, 1.5 g/L sodium bicarbonate, 4.5 g/L glucose, and 10 wt % fetal bovine serum. The A7r5 smooth muscle cells were cultured in a 75 cm^2 petri dish, and 12 mL of the culture medium was added thereinto. The cells were placed and incubated in a cell incubator containing 5 vol % of carbon dioxide at 37° C. After the dish was fully covered by the grown cells, the medium was replaced once every 3 days, and 0.5 wt % trypsin was used for subculture.
(§2) In addition, a culture medium containing n-butylidenephthalide was prepared. Herein, n-butylidenephthalide was dissolved in dimethyl sulfoxide (purchased from Sigma), and solutions with n-butylidenephthalide concentrations of 0, 25, 50, 100, 150, and 200 mg/mL were prepared, and the solutions were stored at −20° C. When used to prepare a medium, the solutions were diluted by 1000 times with the general culture medium used for incubating smooth muscle cells to prepare a culture medium containing 0, 25, 50, 100, 150, or 200 μg/mL of n-butylidenephthalide.
An inhibition test on the cell cycle progression of smooth muscle cells was carried out. Because the cellular DNA content is different in each cell cycle phase, the amount of DNA can be used to evaluate the cell cycle phase in which the cell proceeds. In another aspect, because propidium iodide can bind to DNA, and it can emit red fluorescent light with a wavelength of 625 nm after being excited by light with a wavelength of 488 nm, thus, propidium iodide was used as a fluorescent staining agent in the present experiment, and the red fluorescent intensity represented the amount of DNA, thereby determining which phase the cell was in during the cell cycle.
The rat aortic smooth muscle cell line A7r5 was inoculated in a 6-hole culture dish (density: 1×10^5 cells/hole). After the cells were cultured for 24 hours, the medium was replaced by a medium containing n-butylidenephthalide with a concentration of 0, 25, or 50 μg/mL to culture the smooth muscle cells. After another 24 hours, the cells were fixed with 70 vol % alcohol, and a phosphate buffer solution (PBS) was used to rinse the cells. Finally, propidium iodide (a solution containing 955 μL 1×PBS, 5 μL Triton X-100 (0.5 wt %, purchased from Sigma), 20 μL RNase A (10 mg/mL, purchased from Sigma), and 20 μL propidium iodide (1 mg/mL, purchased from Sigma)) was used to stain the cells for 15 minutes. Then, a flow cytometry (FC500, Beckman) was used to scan and collect 10,000 cells. Multicycle for Windows software (Phoenix Flow Systems) was used to analyze cellular cell cycle.

[2] = test system: rat aortic smooth muscle cell line A7r5; test: Inhibiting proliferation of smooth muscle cells - cell counting analysis (trypan blue); type: cell-based; conditions: 48 hours
Experimental: as §1, §2
The rat aortic smooth muscle cell line A7r5 was inoculated in a 6-hole culture dish (density: 1×10^5 cells/hole). After the cells were cultured for 24 hours, the medium was replaced by a medium containing n-butylidenephthalide with a concentration of 0, 25, 50, 100, 150, or 200 μg/mL to culture the smooth muscle cells. After another 48 hours, the cells were observed by an inverted microscope, and the cells were detached by 0.5 wt % trypsin. Then, 20 μL of the cell suspension was taken and mixed evenly with 20 μL trypan blue, and finally, 10 μL of the mixture was collected and added onto a blood cell counting plate. The cell number was counted by a microscope under 100× magnifications to evaluate the inhibition of n-butylidenephthalide on the growth of the smooth muscle cells.

[3] = test system: carotid artery of Sprague-Dawley (SD) rats after balloon catheter injury; test: Animal test - treatment of carotid artery injury induced blood vessel stenosis; type: in vivo, rat; conditions: for Blood vessel neointimal layer area /middle layer area (intima/media ratio) / Blood vessel neointimal layer area: day 14
Experimental: Sprague-Dawley (SD) rats (purchased from BioLasco Taiwan Co. Ltd, Taipei) were used in the present experiment to carry out the animal test. The rats were bred in an environment with 12 hours light, followed by 12 hours dark, and fed to 10-weeks old (body weight: about 300 to 400 g). Then, carotid artery injury surgery and the following experiments were carried out. The present experiment followed the Animal Protection Act and the provisions of Animal Management Committee of National Dong Hwa University.
The SD rat was anesthetized by 320 mg/kg-body-weight chloral hydrate (purchased from Fluka), and then the abdominal area was faced upwards, and the limbs were fixed with a breathable tape on a surgery plate. The Casscells' method (Casscells et al., Migration of smooth muscle and endothelial cells. Critical events in restenosis, Circulation, 1992; 86; 723-729, which is incorporated hereinto by reference) was used to carry out the carotid artery injury surgery. First, the skin of the rat was cut open with a scissor from the midline of the neck jaw to the chest area, and then the connective tissue at the right side of the rat neck was separated from the muscle layer to expose the blood vessel next to the trachea, and the blood vessel is the common carotid artery. The right side common carotid artery, internal carotid artery, and external carotid artery were separated, and the connective tissue at the junction of these three blood vessels was completely striped. Then, the external carotid artery was tied up with a 2/0 sized silk thread, and the common carotid artery was clipped by a vascular clip to avoid heavy bleeding. A gap was made by cutting the external carotid artery with a microscopic scissor, and a balloon catheter (Cather French Size 2F, purchased from Edwards Lifescience) was implanted through the gap. The balloon catheter was inserted 5 cm into the common carotid artery, and 0.2 mL of a physiological saline solution was filled into the balloon catheter to expend the catheter. Then, the balloon catheter was pulled out to the gap of the external carotid artery, and the physiological saline solution was drawn out from the balloon catheter. After the common carotid artery was injured repeatedly for three times by this method, the gap of the external carotid artery and the bifurcation point between the external carotid artery and the common carotid artery were tied up with a 2/0 sized silk thread. Finally, the wound of the rat was stitched up and spread with an iodine solution. After the rat woke up, the carotid artery injury surgery was completed.
Two weeks after the carotid artery injury surgery, the rat was sacrificed with excess chloral hydrate (640 mg/kg-body weight). PBS (300 mL) was injected into the left ventricle of the rat using the heart perfusion method and flowed out from the right ventricle through systemic circulation. Neutral formalin (200 mL, 10 vol %) was injected into the left ventricle of the rat to immobilize the whole body tissue. The common carotid artery immobilized by formalin was removed and soaked in a 10 vol % neutral formalin solution.
The common carotid artery was divided into four sections and labeled with A, B, C, and D from the head to the heart. Each section was 4 mm in length and was placed in an embedding cassette, and then an automatic tissue processor (purchased from Sakura) was used to process the tissue. The process procedure was 1 hour in a 10 vol % formalin solution, 30 minutes in water, 1 hour in 80 vol % alcohol, 3 hours in 95 vol % alcohol, 4 hours in 100 vol % alcohol, 3 hours in xylene, and 3 hours in paraffin. After the tissue process procedure was completed, the tissue was wrapped by paraffin, and the tissue biopsy was carried out by a slicer (purchased from Lica) with a cut of 8 μm thickness. Immunohistochemical stain and H&E stain on the biopsy were carried out. […]

CCC/C=C1\OC(=O)c2ccccc21 [n-butylidenephthalide]
effect on cell cycle of smooth muscle cells (in words) ([1]; 25 and 50 μg/mL): stagnate the smooth muscle cells in the G0/G1 phase
Ratio of cells in cell cycle phase G0/G1 ([1]; 25 μg/mL): 68.33 +/− 0.05%
Ratio of cells in cell cycle phase G0/G1 ([1]; 50 μg/mL): 68.9% and 68.86 +/− 5.2%
Ratio of cells in cell cycle phase G2/M ([1]; 25 μg/mL): 11.3 +/− 1.25%
Ratio of cells in cell cycle phase G2/M ([1]; 50 μg/mL): 12.1 +/− 1.15%
Ratio of cells in cell cycle phase S ([1]; 25 μg/mL): 20.33 +/− 2.05%
Ratio of cells in cell cycle phase S ([1]; 50 μg/mL): 19.0% and 19.00 +/− 4.3%
Growth rate ([2]; 25 μg/mL): 0.56 +/− 0.06%
Growth rate ([2]; 50 μg/mL): 0.32 +/− 0.04%
Growth rate ([2]; 100 μg/mL): 0.25 +/− 0.03%
Growth rate ([2]; 150 μg/mL): 0.12 +/− 0.04%
Growth rate ([2]; 200 μg/mL): 0.10 +/− 0.02%
inhibition at 25 µg/mL ([2]; Rattus norvegicus, 25 μg/mL, read-out: inhibition rate of smooth muscle cell growth): 43.6%
IC50 ([2]; Rattus norvegicus, read-out: IC50 of smooth muscle cell growth): 27 µg/mL and 143 µM
inhibition of blood vessel stenosis (in words) ([3]; 60 mg/kg-body weight): no significant inhibition effect
proportion of the rats whose increased area of the blood vessel neointimal layer was under 1×10^5 μm^2 ([3]; 60 mg/kg-body weight): 0%
Blood vessel neointimal layer area /middle layer area (intima/media ratio) ([3]; 60 mg/kg-body weight): 1.3 +/− 0.3
number of rats with increased neointimal area 0~50,000 μm^2 ([3]; 60 mg/kg-body weight, n = 6): 0
number of rats with increased neointimal area 50,000~100,000 μm^2 ([3]; 60 mg/kg-body weight, n = 6): 0
number of rats with increased neointimal area 100,000~150,000 μm^2 ([3]; 60 mg/kg-body weight, n = 6): 4
number of rats with increased neointimal area Above 150,000 μm^2 ([3]; 60 mg/kg-body weight, n = 6): 2
proportion of rats with increased neointimal area 100,000~150,000 μm^2 ([3]; 60 mg/kg-body weight, n = 6): 66.7%
proportion of rats with increased neointimal area Above 150,000 μm^2 ([3]; 60 mg/kg-body weight, n = 6): 33.3%
inhibition of blood vessel stenosis (in words) ([3]; 150 mg/kg-body weight): significantly be inhibited
inhibition of blood vessel stenosis compared with the sham group (intima/media ratio) ([3]; 150 mg/kg-body weight): 36.7%
inhibition of blood vessel stenosis compared with the sham group (neointimal layer area) ([3]; 150 mg/kg-body weight): 36.3%
proportion of the rats whose increased area of the blood vessel neointimal layer was under 1×10^5 μm^2 ([3]; 150 mg/kg-body weight): 50%
Blood vessel neointimal layer area /middle layer area (intima/media ratio) ([3]; 150 mg/kg-body weight, P < 0.05): 0.81 +/− 0.14*
number of rats with increased neointimal area 0~50,000 μm^2 ([3]; 150 mg/kg-body weight, n = 6): 0
number of rats with increased neointimal area 50,000~100,000 μm^2 ([3]; 150 mg/kg-body weight, n = 6): 3
number of rats with increased neointimal area 100,000~150,000 μm^2 ([3]; 150 mg/kg-body weight, n = 6): 3
number of rats with increased neointimal area Above 150,000 μm^2 ([3]; 150 mg/kg-body weight, n = 6): 0
proportion of rats with increased neointimal area 50,000~100,000 μm^2 ([3]; 150 mg/kg-body weight, n = 6): 50%
proportion of rats with increased neointimal area 100,000~150,000 μm^2 ([3]; 150 mg/kg-body weight, n = 6): 50%
inhibition of blood vessel stenosis (in words) ([3]; 300 mg/kg-body weight): significantly be inhibited
inhibition of blood vessel stenosis compared with the sham group (intima/media ratio) ([3]; 300 mg/kg-body weight): 57.8%
inhibition of blood vessel stenosis compared with the sham group (neointimal layer area) ([3]; 300 mg/kg-body weight): 56.2%
proportion of the rats whose increased area of the blood vessel neointimal layer was under 1×10^5 μm^2 ([3]; 300 mg/kg-body weight): 83.3%
Blood vessel neointimal layer area /middle layer area (intima/media ratio) ([3]; 300 mg/kg-body weight, P < 0.01): 0.54 +/− 0.24**
number of rats with increased neointimal area 0~50,000 μm^2 ([3]; 300 mg/kg-body weight, n = 6): 2
number of rats with increased neointimal area 50,000~100,000 μm^2 ([3]; 300 mg/kg-body weight, n = 6): 3
number of rats with increased neointimal area 100,000~150,000 μm^2 ([3]; 300 mg/kg-body weight, n = 6): 1
number of rats with increased neointimal area Above 150,000 μm^2 ([3]; 300 mg/kg-body weight, n = 6): 0
proportion of rats with increased neointimal area 0~50,000 μm^2 ([3]; 300 mg/kg-body weight, n = 6): 33.3%
proportion of rats with increased neointimal area 50,000~100,000 μm^2 ([3]; 300 mg/kg-body weight, n = 6): 50.0%
proportion of rats with increased neointimal area 100,000~150,000 μm^2 ([3]; 300 mg/kg-body weight, n = 6): 16.7%
Blood vessel neointimal layer area ([3]; carotid artery Section A, 60 mg/kg-body weight abdominal injection, days 1,3,5,7,9,11): 164528 +/− 81467 μm^2
Blood vessel neointimal layer area ([3]; carotid artery Section A, 150 mg/kg-body weight abdominal injection): 75272 +/− 36346 μm^2
Blood vessel neointimal layer area ([3]; carotid artery Section A, 300 mg/kg-body weight abdominal injection): 53118 +/− 33403 μm^2
Blood vessel neointimal layer area ([3]; carotid artery Section B, 60 mg/kg-body weight abdominal injection): 168355 +/− 37686 μm^2
Blood vessel neointimal layer area ([3]; carotid artery Section B, 150 mg/kg-body weight abdominal injection): 119827 +/− 35005 μm^2
Blood vessel neointimal layer area ([3]; carotid artery Section B, 300 mg/kg-body weight abdominal injection): 76551 +/− 45327 μm^2
Blood vessel neointimal layer area ([3]; carotid artery Section C, 60 mg/kg-body weight abdominal injection): 138260 +/− 36681 μm^2
Blood vessel neointimal layer area ([3]; carotid artery Section C, 150 mg/kg-body weight abdominal injection): 93111 +/− 19875 μm^2
Blood vessel neointimal layer area ([3]; carotid artery Section C, 300 mg/kg-body weight abdominal injection): 61150 +/− 27899 μm^2
Blood vessel neointimal layer area ([3]; carotid artery Section D, 60 mg/kg-body weight abdominal injection): 130852 +/− 77915 μm^2
Blood vessel neointimal layer area ([3]; carotid artery Section D, 150 mg/kg-body weight abdominal injection): 85273 +/− 15262 μm^2
Blood vessel neointimal layer area ([3]; carotid artery Section D, 300 mg/kg-body weight abdominal injection): 66654 +/− 23434 μm^2
Blood vessel neointimal layer area ([3]; whole carotid artery (Table 4), 60 mg/kg-body weight): 150499 +/− 34951 μm^2
Blood vessel neointimal layer area ([3]; whole carotid artery (Table 4), 150 mg/kg-body weight, P < 0.01): 93371 +/− 14693 ** μm^2
Blood vessel neointimal layer area ([3]; whole carotid artery (Table 4), 300 mg/kg-body weight, P < 0.01): 64368 +/− 20641 ** μm^2
